# Earlier results, collected in US20090062282A1, “Substituted Amino-Pyrimidones and Uses Thereof” (AstraZeneca AB, priority 2004, published 2009).
# Square brackets hold non-standard residues; d marks the D form. Peptide text beside a SMILES is read from it. * marks the point of attachment. Sta = CC(C)C[C@H](N)[C@@H](O)CC(=O)O; Isovaleryl = CC(C)CC(=O)*
# Target: BACE (Homo sapiens, UniProt P56817)
# Sequence (P56817 46-501): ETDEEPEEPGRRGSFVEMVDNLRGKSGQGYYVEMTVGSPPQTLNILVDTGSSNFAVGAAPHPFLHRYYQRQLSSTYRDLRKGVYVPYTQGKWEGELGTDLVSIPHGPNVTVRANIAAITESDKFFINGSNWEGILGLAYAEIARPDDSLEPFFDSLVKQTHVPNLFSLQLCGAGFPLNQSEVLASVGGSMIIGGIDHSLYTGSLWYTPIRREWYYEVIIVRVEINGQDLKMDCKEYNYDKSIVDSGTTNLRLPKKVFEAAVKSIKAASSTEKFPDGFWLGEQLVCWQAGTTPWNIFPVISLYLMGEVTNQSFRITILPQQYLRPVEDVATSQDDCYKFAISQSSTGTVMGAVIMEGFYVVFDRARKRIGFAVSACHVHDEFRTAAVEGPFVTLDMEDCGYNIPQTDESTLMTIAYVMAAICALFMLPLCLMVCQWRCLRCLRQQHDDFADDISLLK
smiles,measurement,value
CC(C)CC(=O)N[C@H](C(=O)N[C@H](C(=O)N[C@@H](CC(C)C)[C@@H](O)CC(=O)N[C@@H](C)C(=O)N[C@@H](CC(C)C)[C@@H](O)CC(=O)O)C(C)C)C(C)C [pepstatin] (Isovaleryl-VV[Sta]A[Sta]-OH),inhibition of BACE,inhibited weakly
